Several values for one entry are separate records, joined by “and”; a condition that tells them apart may be missing. Equal values may be shown once.
What was measured:
Test in all cases: In-cell proteome-wide competitive ABPP, HEK293: other DUBs and proteins
[1] = biological target: DUBs and other proteins in HEK293 cells (Homo sapiens, UniProt Q14694); settings: replicates A-C; for Log2 reporter intensity values: USP10: competition with ABP 2, DMSO substract (FC); for Log2 reporter intensity values: USP10, DMSO subtracted
[2] = biological target: DUBs and other proteins in HEK293 cells (Homo sapiens, UniProt P51784); settings: replicates A-C; for Log2 reporter intensity values: USP11: competition with ABP 2, DMSO substract (FC); for Log2 reporter intensity values: USP11, DMSO subtracted
[3] = biological target: T1, DUBs and other proteins in HEK293 cells (Homo sapiens, UniProt P45974); settings: replicates A-C; for Log2 reporter intensity values: USP5: competition with ABP 2, DMSO substract (FC); for Log2 reporter intensity values: USP5, DMSO subtracted
T1 sequence (P45974 1-858): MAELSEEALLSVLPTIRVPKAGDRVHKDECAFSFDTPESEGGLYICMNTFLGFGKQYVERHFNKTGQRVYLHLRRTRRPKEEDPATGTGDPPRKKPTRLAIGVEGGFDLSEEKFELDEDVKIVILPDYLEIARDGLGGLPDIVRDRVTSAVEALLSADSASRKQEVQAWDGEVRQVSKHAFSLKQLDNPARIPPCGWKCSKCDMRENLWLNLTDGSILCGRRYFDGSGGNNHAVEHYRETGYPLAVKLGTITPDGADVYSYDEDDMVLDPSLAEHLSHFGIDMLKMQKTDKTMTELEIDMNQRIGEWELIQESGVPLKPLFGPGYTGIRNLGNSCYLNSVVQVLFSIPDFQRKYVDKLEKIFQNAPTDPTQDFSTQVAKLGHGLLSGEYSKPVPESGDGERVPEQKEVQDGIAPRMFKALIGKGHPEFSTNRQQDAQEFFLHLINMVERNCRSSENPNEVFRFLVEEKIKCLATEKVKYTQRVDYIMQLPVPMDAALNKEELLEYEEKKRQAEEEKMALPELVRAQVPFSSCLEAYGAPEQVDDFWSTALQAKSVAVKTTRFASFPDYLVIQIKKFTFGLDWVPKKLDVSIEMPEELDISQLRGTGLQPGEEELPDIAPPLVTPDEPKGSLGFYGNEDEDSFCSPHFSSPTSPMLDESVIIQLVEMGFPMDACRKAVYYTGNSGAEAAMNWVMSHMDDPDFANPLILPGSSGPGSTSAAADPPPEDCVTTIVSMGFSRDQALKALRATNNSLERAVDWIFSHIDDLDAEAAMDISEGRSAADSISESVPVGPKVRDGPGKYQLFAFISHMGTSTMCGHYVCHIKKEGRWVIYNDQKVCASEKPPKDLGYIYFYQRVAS

[4] = biological target: T2, DUBs and other proteins in HEK293 cells (Homo sapiens, UniProt Q53GS9); settings: replicates A-C; for Log2 reporter intensity values: USP39: competition with ABP 2, DMSO substract (FC); for Log2 reporter intensity values: USP39, DMSO subtracted
T2 sequence (Q53GS9 1-565): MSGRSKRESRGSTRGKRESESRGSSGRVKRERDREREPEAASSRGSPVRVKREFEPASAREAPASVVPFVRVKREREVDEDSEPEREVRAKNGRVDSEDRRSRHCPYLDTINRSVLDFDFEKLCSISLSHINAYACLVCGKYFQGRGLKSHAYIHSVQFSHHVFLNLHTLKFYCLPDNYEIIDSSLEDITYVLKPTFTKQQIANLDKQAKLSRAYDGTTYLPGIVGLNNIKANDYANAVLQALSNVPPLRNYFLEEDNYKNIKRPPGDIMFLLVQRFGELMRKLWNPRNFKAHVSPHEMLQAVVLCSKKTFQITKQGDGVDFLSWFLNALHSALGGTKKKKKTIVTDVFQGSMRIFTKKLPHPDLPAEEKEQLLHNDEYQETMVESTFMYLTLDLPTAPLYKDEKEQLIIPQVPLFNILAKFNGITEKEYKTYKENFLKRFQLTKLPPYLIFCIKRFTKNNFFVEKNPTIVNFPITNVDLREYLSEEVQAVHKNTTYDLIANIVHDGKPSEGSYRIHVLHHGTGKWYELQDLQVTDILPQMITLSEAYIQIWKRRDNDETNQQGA

[5] = biological target: DUBs and other proteins in HEK293 cells (Homo sapiens, UniProt Q7L5N1); settings: for Log2 reporter intensity values, COPS6: TMT replicates; for Log2 reporter intensity values: COPS6: competition with ABP 2, DMSO substract (FC); for Log2 reporter intensity values: COPS6 / Log2 reporter intensity values: replicates A-C; for Log2 t-test Difference / Log2 reporter intensity values: COPS6
[6] = biological target: DUBs and other proteins in HEK293 cells (Homo sapiens, UniProt O00303); settings: for Log2 reporter intensity values, EIF3F: TMT replicates; for Log2 reporter intensity values: EIF3F: competition with ABP 2, DMSO substract (FC); for Log2 reporter intensity values: EIF3F / Log2 reporter intensity values: replicates A-C; for Log2 t-test Difference / Log2 reporter intensity values: EIF3F
[7] = biological target: DUBs and other proteins in HEK293 cells (Homo sapiens, UniProt Q9Y5T5); settings: replicates A-C; for Log2 reporter intensity values: USP16: competition with ABP 2, DMSO substract (FC); for Log2 reporter intensity values: USP16, DMSO subtracted
[8] = 1 μM 3 (60 min) + 20 nM ABP 2 (10 min), All values
[9] = 1 μM 3 (60 min) + 20 nM ABP 2 (10 min), DMSO subtracted
[10] = 4 μM 3 (60 min) + 20 nM ABP 2 (10 min), All values
[11] = 4 μM 3 (60 min) + 20 nM ABP 2 (10 min), DMSO subtracted

Sequence of DUBs and other proteins in HEK293 cells (Homo sapiens, UniProt Q9Y5T5) (Q9Y5T5 whole entry): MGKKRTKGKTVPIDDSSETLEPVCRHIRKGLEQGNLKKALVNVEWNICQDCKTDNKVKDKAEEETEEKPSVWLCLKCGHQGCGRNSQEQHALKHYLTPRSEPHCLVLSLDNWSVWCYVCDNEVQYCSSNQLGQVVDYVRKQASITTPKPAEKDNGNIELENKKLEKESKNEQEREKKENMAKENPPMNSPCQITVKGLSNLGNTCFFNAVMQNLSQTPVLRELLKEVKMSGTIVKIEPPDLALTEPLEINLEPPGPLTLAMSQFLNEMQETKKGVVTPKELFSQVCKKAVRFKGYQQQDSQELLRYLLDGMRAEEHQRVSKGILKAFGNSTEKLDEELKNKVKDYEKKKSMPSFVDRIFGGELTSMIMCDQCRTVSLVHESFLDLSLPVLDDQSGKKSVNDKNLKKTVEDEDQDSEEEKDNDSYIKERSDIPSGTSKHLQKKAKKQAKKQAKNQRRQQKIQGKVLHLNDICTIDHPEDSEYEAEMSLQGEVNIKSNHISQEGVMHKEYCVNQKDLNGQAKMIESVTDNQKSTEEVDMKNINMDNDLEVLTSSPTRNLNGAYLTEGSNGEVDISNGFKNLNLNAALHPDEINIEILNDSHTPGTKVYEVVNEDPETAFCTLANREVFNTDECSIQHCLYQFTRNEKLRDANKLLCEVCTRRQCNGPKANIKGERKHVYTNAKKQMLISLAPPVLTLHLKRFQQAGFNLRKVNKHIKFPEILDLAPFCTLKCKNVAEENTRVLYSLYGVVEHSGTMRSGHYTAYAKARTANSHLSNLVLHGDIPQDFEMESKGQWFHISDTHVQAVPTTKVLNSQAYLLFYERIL
Sequence of DUBs and other proteins in HEK293 cells (Homo sapiens, UniProt P51784) (P51784 whole entry): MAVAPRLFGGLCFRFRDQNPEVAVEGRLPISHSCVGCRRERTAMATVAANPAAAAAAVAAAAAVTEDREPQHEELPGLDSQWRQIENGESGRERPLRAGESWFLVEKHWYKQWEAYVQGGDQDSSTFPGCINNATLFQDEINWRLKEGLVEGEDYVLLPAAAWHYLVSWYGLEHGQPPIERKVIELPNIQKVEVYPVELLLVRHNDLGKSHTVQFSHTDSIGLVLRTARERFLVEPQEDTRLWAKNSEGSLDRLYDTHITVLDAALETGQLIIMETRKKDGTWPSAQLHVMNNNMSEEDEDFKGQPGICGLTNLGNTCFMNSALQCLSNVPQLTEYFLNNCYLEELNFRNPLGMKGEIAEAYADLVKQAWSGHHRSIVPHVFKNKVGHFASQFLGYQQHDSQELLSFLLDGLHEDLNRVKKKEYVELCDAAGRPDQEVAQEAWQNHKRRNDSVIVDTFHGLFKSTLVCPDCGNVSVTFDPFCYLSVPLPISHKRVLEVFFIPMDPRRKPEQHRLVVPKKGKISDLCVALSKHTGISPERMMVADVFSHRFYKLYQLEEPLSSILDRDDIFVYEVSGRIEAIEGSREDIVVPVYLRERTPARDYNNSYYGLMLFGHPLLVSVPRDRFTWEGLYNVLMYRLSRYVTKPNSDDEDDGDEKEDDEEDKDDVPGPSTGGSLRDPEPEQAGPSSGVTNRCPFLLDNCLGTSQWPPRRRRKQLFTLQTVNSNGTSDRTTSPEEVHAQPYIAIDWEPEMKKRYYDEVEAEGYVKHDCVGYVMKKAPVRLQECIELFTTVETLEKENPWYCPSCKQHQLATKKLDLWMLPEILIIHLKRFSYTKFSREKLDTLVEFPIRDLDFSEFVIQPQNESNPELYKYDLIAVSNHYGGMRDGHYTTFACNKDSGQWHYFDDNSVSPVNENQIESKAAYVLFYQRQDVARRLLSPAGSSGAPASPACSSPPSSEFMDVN
Sequence of DUBs and other proteins in HEK293 cells (Homo sapiens, UniProt O00303) (O00303 whole entry): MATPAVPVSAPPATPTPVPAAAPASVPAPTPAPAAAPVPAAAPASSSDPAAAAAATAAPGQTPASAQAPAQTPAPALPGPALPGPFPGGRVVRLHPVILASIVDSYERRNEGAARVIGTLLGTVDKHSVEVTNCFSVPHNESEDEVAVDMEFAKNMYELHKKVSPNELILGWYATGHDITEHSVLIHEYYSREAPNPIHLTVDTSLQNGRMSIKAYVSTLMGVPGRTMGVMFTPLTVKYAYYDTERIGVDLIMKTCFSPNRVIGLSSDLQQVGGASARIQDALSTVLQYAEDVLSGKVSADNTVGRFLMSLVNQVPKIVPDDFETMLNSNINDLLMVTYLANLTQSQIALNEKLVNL
Sequence of DUBs and other proteins in HEK293 cells (Homo sapiens, UniProt Q14694) (Q14694 whole entry): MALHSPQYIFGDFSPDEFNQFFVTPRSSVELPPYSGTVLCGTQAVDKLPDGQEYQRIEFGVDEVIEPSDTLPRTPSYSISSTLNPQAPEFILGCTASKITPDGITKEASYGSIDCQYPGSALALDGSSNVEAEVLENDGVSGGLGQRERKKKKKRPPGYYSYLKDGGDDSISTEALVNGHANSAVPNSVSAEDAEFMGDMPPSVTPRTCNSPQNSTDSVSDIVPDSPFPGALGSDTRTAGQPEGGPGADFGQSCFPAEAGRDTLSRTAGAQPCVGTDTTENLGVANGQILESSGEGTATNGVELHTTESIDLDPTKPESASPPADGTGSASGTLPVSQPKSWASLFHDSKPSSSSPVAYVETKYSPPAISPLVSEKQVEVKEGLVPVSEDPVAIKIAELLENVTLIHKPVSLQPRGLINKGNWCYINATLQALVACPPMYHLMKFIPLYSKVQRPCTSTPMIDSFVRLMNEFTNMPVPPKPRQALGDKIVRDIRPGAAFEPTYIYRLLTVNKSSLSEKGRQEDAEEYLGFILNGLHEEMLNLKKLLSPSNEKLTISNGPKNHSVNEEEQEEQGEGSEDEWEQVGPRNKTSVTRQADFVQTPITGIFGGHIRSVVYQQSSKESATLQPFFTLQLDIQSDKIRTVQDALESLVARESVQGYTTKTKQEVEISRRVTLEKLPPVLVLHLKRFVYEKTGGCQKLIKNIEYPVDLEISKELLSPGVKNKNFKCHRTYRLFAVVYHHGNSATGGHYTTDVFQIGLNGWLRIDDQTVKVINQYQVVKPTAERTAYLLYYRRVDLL
Sequence of DUBs and other proteins in HEK293 cells (Homo sapiens, UniProt Q7L5N1) (Q7L5N1 whole entry): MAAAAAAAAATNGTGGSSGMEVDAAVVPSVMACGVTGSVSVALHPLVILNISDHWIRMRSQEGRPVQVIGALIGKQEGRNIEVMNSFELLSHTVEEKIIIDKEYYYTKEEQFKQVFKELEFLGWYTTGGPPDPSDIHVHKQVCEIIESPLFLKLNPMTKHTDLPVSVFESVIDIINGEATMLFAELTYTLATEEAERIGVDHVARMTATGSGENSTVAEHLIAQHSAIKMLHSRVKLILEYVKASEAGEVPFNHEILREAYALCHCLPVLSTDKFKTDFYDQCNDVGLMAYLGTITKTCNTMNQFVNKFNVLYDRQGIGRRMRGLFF

N#CN1CCC[C@@H]1C(=O)N1CCc2c(-c3c[nH]c4ncccc34)cccc21 [Compound 3]
Log2 reporter intensity values: USP10 ([1]; 3 at 1 μM): 0.9243 and 0.9306 and 0.9846
Log2 reporter intensity values: USP10 ([1]; 3 at 4 μM): 0.9265 and 0.935 and 0.9597
Log2 reporter intensity values ([1]; 3_1 μM): -0.07662 and -0.07034 and -0.01633
Log2 reporter intensity values ([1]; 3_4 μM): -0.07444 and -0.066 and -0.04125
Log2 reporter intensity values ([1]; 3 at 1 μM): -0.1135 and -0.1037 and -0.02233
Log2 reporter intensity values ([1]; 3 at 4 μM): -0.1101 and -0.09701 and -0.05932
Log2 reporter intensity values: USP11 ([2]; 3 at 1 μM): 1.117 and 1.058 and 1.05
Log2 reporter intensity values: USP11 ([2]; 3 at 4 μM): 0.8158 and 0.9889 and 0.9502
Log2 reporter intensity values ([2]; 3_1 μM): 0.1164 and 0.05763 and 0.04999
Log2 reporter intensity values ([2]; 3_4 μM): -0.1845 and -0.01139 and -0.05014
Log2 reporter intensity values ([2]; 3 at 1 μM): 0.1593 and 0.08129 and 0.07083
Log2 reporter intensity values ([2]; 3 at 4 μM): -0.2937 and -0.01604 and -0.0737
Log2 reporter intensity values: USP5 ([3]; 3 at 1 μM): 0.9394 and 0.9901 and 0.9848
Log2 reporter intensity values: USP5 ([3]; 3 at 4 μM): 1.005 and 1.031 and 1.063
Log2 reporter intensity values ([3]; 3_1 μM): -0.06093 and -0.01022 and -0.01553
Log2 reporter intensity values ([3]; 3_4 μM): 0.004396 and 0.03114 and 0.06231
Log2 reporter intensity values ([3]; 3 at 1 μM): -0.0902 and -0.01435 and -0.02211
Log2 reporter intensity values ([3]; 3 at 4 μM): 0.006795 and 0.04469 and 0.08765
Log2 reporter intensity values: USP39 ([4]; 3 at 1 μM): 0.9789 and 0.9555 and 0.9911
Log2 reporter intensity values: USP39 ([4]; 3 at 4 μM): 0.9367 and 1.076 and 1.058
Log2 reporter intensity values ([4]; 3_1 μM): -0.0217 and -0.04512 and -0.009501
Log2 reporter intensity values ([4]; 3_4 μM): -0.06394 and 0.07549 and 0.05768
Log2 reporter intensity values ([4]; 3 at 1 μM): -0.03075 and -0.0657 and -0.01288
Log2 reporter intensity values ([4]; 3 at 4 μM): -0.09439 and 0.1058 and 0.08174
Log2 reporter intensity values, COPS6 [5, 8]: 0.04099 and 0.07831 and 0.06581
Log2 reporter intensity values, COPS6 [5, 9]: 0.02857 and 0.06589 and 0.0534
Log2 reporter intensity values, COPS6 [5, 10]: -0.1551 and -0.06324 and -0.1331
Log2 reporter intensity values, COPS6 [5, 11]: -0.1675 and -0.07565 and -0.1455
Log2 reporter intensity values: COPS6 ([5]; 3 at 1 μM): 1.02 and 1.047 and 1.038
Log2 reporter intensity values: COPS6 ([5]; 3 at 4 μM): 0.8904 and 0.9489 and 0.9041
Log2 t-test Difference ([5]; 3 - 1 μM): 0.00565
Log2 t-test Difference ([5]; 3 - 4 μM): -0.1732
Log2 reporter intensity values ([5]; 3_1 μM, DMSO subtracted): 0.01989 and 0.04662 and 0.0376
Log2 reporter intensity values ([5]; 3_4 μM, DMSO subtracted): -0.1098 and -0.0512 and -0.09603
Log2 reporter intensity values ([5]; 3 at 1 μM, DMSO subtracted): 0.02857 and 0.06589 and 0.0534
Log2 reporter intensity values ([5]; 3 at 4 μM, DMSO subtracted): -0.1675 and -0.07565 and -0.1455
Log2 reporter intensity values, EIF3F [6, 8]: 0.01809 and -0.02026 and 0.07981
Log2 reporter intensity values, EIF3F [6, 9]: 0.02764 and -0.01071 and 0.08936
Log2 reporter intensity values, EIF3F [6, 10]: -0.1978 and 0.02104 and -0.01378
Log2 reporter intensity values, EIF3F [6, 11]: -0.1882 and 0.03059 and -0.004226
Log2 reporter intensity values: EIF3F ([6]; 3 at 1 μM): 1.019 and 0.9926 and 1.064
Log2 reporter intensity values: EIF3F ([6]; 3 at 4 μM): 0.8777 and 1.021 and 0.9971
Log2 t-test Difference ([6]; 3 - 1 μM): -0.05527
Log2 t-test Difference ([6]; 3 - 4 μM): -0.1447
Log2 reporter intensity values ([6]; 3_1 μM, DMSO subtracted): 0.01893 and -0.007817 and 0.06348
Log2 reporter intensity values ([6]; 3_4 μM, DMSO subtracted): -0.1227 and 0.02101 and -0.003343
Log2 reporter intensity values ([6]; 3 at 1 μM, DMSO subtracted): 0.02764 and -0.01071 and 0.08936
Log2 reporter intensity values ([6]; 3 at 4 μM, DMSO subtracted): -0.1882 and 0.03059 and -0.004226
Log2 reporter intensity values: USP16 ([7]; 3 at 1 μM): 1.04 and 1.242 and 1.156
Log2 reporter intensity values: USP16 ([7]; 3 at 4 μM): 1.088 and 0.9104 and 1.039
Log2 reporter intensity values ([7]; 3_1 μM): 0.03732 and 0.2403 and 0.1536
Log2 reporter intensity values ([7]; 3_4 μM): 0.08611 and -0.09176 and 0.0368
Log2 reporter intensity values ([7]; 3 at 1 μM): 0.0559 and 0.3132 and 0.2089
Log2 reporter intensity values ([7]; 3 at 4 μM): 0.1221 and -0.1354 and 0.05518

Source: PMC7366380, “Discovery of a Potent and Selective Covalent Inhibitor and Activity-Based Probe for the Deubiquitylating Enzyme UCHL1, with Antifibrotic Activity” (Journal of the American Chemical Society, 2020)
